The source of these data is patent US5795885A, “Method of inhibiting profileration of cells by administering an aminosterol compound” (priority 1995, dated 1998).

Test [1] relates to stage 59-60 Xenopus tadpoles.
Test [2] deals with chick embryo vitelline capillaries. In words: chick embryo vitelline capillary regression assay. It is filed as in vivo. Details: key to vitelline capillary regression: +: Vascular reactivity; 0: No vascular reactivity; +/-: Equivocal reactivity. The following applies: for vitelline capillary regression: 60 minutes. The method, then:
Using the chick embryo vitelline capillaries assay, compounds were tested for their ability to induce capillary regression. Each compound was applied in 0.1 ml of 15% Ficol 400 and PBS onto the embryo, and vascular regression was assessed after 60 minutes.
The 3-day chick embryo consists of an embryonic disc from which numerous vessels emerge and return, forming a "figure 8"-shaped structure--the embryo in the center with vascular loops extending outward over both poles. […] Following a lag period of around 15 minutes, the constriction of continuity between capillary and secondary vessels, generally on the "venous" side, was observed. Continued pulsatile blood flow progressed, resulting in a "swelling" of the blind tube, followed by a pinching off of the remaining connection and formation of an enclosed vascular sac resembling a "blood island." This process progressed until only the largest vessels remained intact.

As to `CC(C)C(CCC(C)C1CCC2C3C(O)CC4CC(NCCCNCCCCN)CCC4(C)C3CCC12C)OS(=O)(=O)O` (centres unmarked), in test [1] (10 μg/mL), the “Tadpole: GI (gastrointestinal)” value was “-”, the “Tadpole: M (melanocytes)” value is on record as “-”, the “Tadpole: Mus (muscle)” value is given as “-” and the “Tadpole: V (vascular)” value was “+”.
Regarding `CC(C)C(CCC(C)C1CCC2C3C(O)CC4CC(NCCCNCCCCNCCCN)CCC4(C)C3CCC12C)OS(=O)(=O)O` (centres unmarked), in test [1] (10 μg/mL), the “Tadpole: E (epithelial)” value is reported as “±”, the “Tadpole: M (melanocytes)” value was “+”, the “Tadpole: Mus (muscle)” value is listed as “-” and the “Tadpole: V (vascular)” value is reported as “+”.
In the case of `CC(C)CCC[C@@H](C)[C@H]1CC[C@H]2[C@@H]3CC[C@H]4C[C@@H](NCCCNCCCCN)CC[C@]4(C)[C@H]3CC[C@]12C` [Compound 303], the vitelline capillary regression in test [2] (1 μg applied) stood at 0.
Still for that read-out and setting: the figure for `C[C@H](CCC(=O)O)[C@H]1CC[C@H]2[C@@H]3CC[C@H]4C[C@H](NCCCNCCCCN)CC[C@]4(C)[C@H]3CC[C@]12C` [Compound 318] is 0.
Regarding `CC(C)CCC[C@@H](C)[C@H]1CC[C@H]2[C@@H]3[C@H](O)C[C@H]4C[C@H](NCCCNCCCCN)CC[C@]4(C)[C@H]3CC[C@]12C` [Compound 370], the “tadpole response similar to FX 3” value in test [1] (tadpole assay) is recorded as “exhibiting pharmacologic activity similar to that seen for FX 3”.
Consider `C[C@H](CCC(=O)O)[C@H]1CC[C@H]2[C@@H]3[C@H](O)C[C@H]4C[C@@H](NCCCNCCCCN)CC[C@]4(C)[C@H]3CC[C@]12C` [Compound 381], for which the vitelline capillary regression in test [2] (1 μg applied) was 0.
For the compound `C[C@H](CCC(=O)O)[C@H]1CC[C@H]2[C@@H]3[C@H](O)C[C@H]4C[C@H](NCCCNCCCCN)CC[C@]4(C)[C@H]3CC[C@]12C` [Compound 382], the vitelline capillary regression was 0 in test [2] (0.001 μg applied); 0 in test [2] (0.01 μg applied); 0 in test [2] (0.1 μg applied); “+” in test [2] (1 μg applied); “+” in test [2] (10 μg applied).
Consider `COC(=O)CC[C@@H](C)[C@H]1CC[C@H]2[C@@H]3[C@H](O)C[C@H]4C[C@@H](NCCCNCCCCNCCCN)CC[C@]4(C)[C@H]3CC[C@]12C` [Compound 396], for which, in test [2] (1 μg applied), the vitelline capillary regression result is on record as “+”.
For the compound `C[C@H](CCC(=O)O)[C@H]1CC[C@H]2[C@@H]3[C@H](O)C[C@@H]4C[C@@H](NCCN)CC[C@]4(C)[C@H]3CC[C@]12C` [Compound 415], the vitelline capillary regression in test [2] (0.001 μg applied) was 0; in test [2] (0.01 μg applied) it was “+”; in test [2] (0.1 μg applied), “+”; in test [2] (1 μg applied), “+”. Further, the “activity in vitelline capillary regression assay (in words)” value in test [2] (in vivo) is listed as “especially active”.
With `COC(=O)CC[C@@H](C)[C@H]1CC[C@H]2[C@@H]3CC[C@@H]4C[C@H](NCCN)CC[C@]4(C)[C@H]3C[C@H](O)[C@]12C` [Compound 416], the “tadpole response similar to compound 1437” value in test [1] (tadpole assay) is “functionally similar to compound 1437”.
For `COC(=O)CC[C@@H](C)[C@H]1CC[C@H]2[C@@H]3C[C@@H](O)[C@H]4C[C@H](NCCN)CC[C@]4(C)[C@H]3CC[C@]12C` [Compound 431], in test [1] (tadpole assay), the “tadpole response similar to compound 1437” value was “functionally similar to compound 1437”.
`COC(=O)CC[C@@H](C)[C@H]1CC[C@H]2[C@@H]3C[C@@H](O)[C@H]4C[C@@H](NCCN)CC[C@]4(C)[C@H]3CC[C@]12C` [Compound 432]: the “tadpole response similar to compound 1437” value in test [1] (tadpole assay) is “functionally similar to compound 1437”.
Consider `C[C@H](CCC(=O)O)[C@H]1CC[C@H]2[C@@H]3C[C@@H](O)[C@H]4C[C@@H](NCCN)CC[C@]4(C)[C@H]3CC[C@]12C` [Compound 433], for which the “tadpole response similar to compound 1437” value in test [1] (tadpole assay) is listed as “functionally similar to compound 1437”.
Turning to `CC(C)CCC[C@@H](C)[C@H]1CC[C@H]2[C@@H]3[C@H](O)C[C@H]4C[C@@H](N)CC[C@]4(C)[C@H]3CC[C@]12C` [Compound 1364], the vitelline capillary regression is 0 in test [2] (0.001 μg applied); 0 in test [2] (0.01 μg applied); 0 in test [2] (0.1 μg applied); “+” in test [2] (1 μg applied); “+” in test [2] (10 μg applied).
